Measurements as given in ChEMBL document CHEMBL1201862, “PubChem BioAssay data set” (2004).
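Where inhibition never reached the appropriate level, the endpoint shown equals the highest concentration tested. Otherwise, values were interpolated linearly from a five-concentration, 48-hour dose response in 96-well plates. GI50 marks 50% less growth.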 Active and inactive are the calls of the source. Rule as the data show it: active = GI50 up to about 1.1 µM and inactive = higher.

Columns and labels:
Assay in all cases: NCI tumour cell line growth inhibition, 48 h
786-0 = system: 786-0
A498 = system: A498
A549 = system: A549
ACHN = system: ACHN
BT-549 = system: BT-549
CAKI-1 = system: CAKI-1
CCRF-CEM = system: CCRF-CEM
COLO 205 = system: COLO 205
DU-145 = system: DU-145
EKVX = system: EKVX
HCC 2998 = system: HCC 2998
HCT-116 = system: HCT-116
HCT-15 = system: HCT-15
HL-60 = system: HL-60
HOP-92 = system: HOP-92
HT-29 = system: HT-29
Hs-578T = system: Hs-578T
IGROV-1 = system: IGROV-1
K562 = system: K562
KM12 = system: KM12
LOX IMVI = system: LOX IMVI
M14 = system: M14
MCF7 = system: MCF7
MDA-MB-231 = system: MDA-MB-231
MDA-MB-435 = system: MDA-MB-435
MDA-N = system: MDA-N
MOLT-4 = system: MOLT-4
Malme-3M = system: Malme-3M
NCI-H226 = system: NCI-H226
NCI-H23 = system: NCI-H23
NCI-H460 = system: NCI-H460
NCI/ADR-RES = system: NCI/ADR-RES
OVCAR-3 = system: OVCAR-3
OVCAR-5 = system: OVCAR-5
OVCAR-8 = system: OVCAR-8
PC-3 = system: PC-3
RXF 393 = system: RXF 393
SF-268 = system: SF-268
SF-295 = system: SF-295
SF-539 = system: SF-539
SK-MEL-28 = system: SK-MEL-28
SK-MEL-2 = system: SK-MEL-2
SK-MEL-5 = system: SK-MEL-5
SK-OV-3 = system: SK-OV-3
SN12C = system: SN12C
SNB-19 = system: SNB-19
SNB-75 = system: SNB-75
SW-620 = system: SW-620
T47D = system: T47D
TK-10 = system: TK-10
U-251 = system: U-251
UACC-257 = system: UACC-257
UACC-62 = system: UACC-62
UO-31 = system: UO-31
HOP-62 = system: HOP-62
NCI-H522 = system: NCI-H522
OVCAR-4 = system: OVCAR-4
RPMI-8226 = system: RPMI-8226

N#Cc1c2c([nH]c(=O)c1C#N)CCCC2
GI50 (786-0): > 100 µM (inactive)
GI50 (A498): > 100 µM (inactive)
GI50 (A549): > 100 µM (inactive)
GI50 (ACHN): > 100 µM (inactive)
GI50 (BT-549): > 100 µM (inactive)
GI50 (CAKI-1): > 100 µM (inactive)
GI50 (CCRF-CEM): > 100 µM (inactive)
GI50 (COLO 205): > 100 µM (inactive)
GI50 (DU-145): > 100 µM (inactive)
GI50 (EKVX): > 100 µM (inactive)
GI50 (HCC 2998): > 100 µM (inactive)
GI50 (HCT-116): > 100 µM (inactive)
GI50 (HCT-15): > 100 µM
GI50 (HL-60): > 100 µM (inactive)
GI50 (HOP-92): 79.1 µM (inactive)
GI50 (HT-29): > 100 µM (inactive)
GI50 (Hs-578T): > 100 µM (inactive)
GI50 (IGROV-1): > 100 µM (inactive)
GI50 (K562): > 100 µM (inactive)
GI50 (KM12): > 100 µM (inactive)
GI50 (LOX IMVI): > 100 µM (inactive)
GI50 (M14): > 100 µM (inactive)
GI50 (MCF7): > 100 µM (inactive)
GI50 (MDA-MB-231): > 100 µM (inactive)
GI50 (MDA-MB-435): > 100 µM (inactive)
GI50 (MDA-N): > 100 µM (inactive)
GI50 (MOLT-4): > 100 µM (inactive)
GI50 (Malme-3M): > 100 µM (inactive)
GI50 (NCI-H226): > 100 µM (inactive)
GI50 (NCI-H23): > 100 µM (inactive)
GI50 (NCI-H460): > 100 µM (inactive)
GI50 (NCI/ADR-RES): > 100 µM (inactive)
GI50 (OVCAR-3): > 100 µM (inactive)
GI50 (OVCAR-5): > 100 µM (inactive)
GI50 (OVCAR-8): > 100 µM (inactive)
GI50 (PC-3): > 100 µM (inactive)
GI50 (RXF 393): > 100 µM (inactive)
GI50 (SF-268): > 100 µM (inactive)
GI50 (SF-295): > 100 µM (inactive)
GI50 (SF-539): > 100 µM (inactive)
GI50 (SK-MEL-28): > 100 µM (inactive)
GI50 (SK-MEL-2): > 100 µM (inactive)
GI50 (SK-MEL-5): > 100 µM (inactive)
GI50 (SK-OV-3): > 100 µM (inactive)
GI50 (SN12C): > 100 µM (inactive)
GI50 (SNB-19): > 100 µM (inactive)
GI50 (SNB-75): 82.8 µM (inactive)
GI50 (SW-620): > 100 µM (inactive)
GI50 (T47D): > 100 µM (inactive)
GI50 (TK-10): > 100 µM (inactive)
GI50 (U-251): > 100 µM (inactive)
GI50 (UACC-257): > 100 µM (inactive)
GI50 (UACC-62): > 100 µM (inactive)
GI50 (UO-31): > 100 µM (inactive)

C/C(CC(O)(C(F)(F)F)C(F)(F)F)=N\N
GI50 (786-0): > 10 µM (inactive)
GI50 (A498): > 10 µM (inactive)
GI50 (A549): > 10 µM (inactive)
GI50 (ACHN): > 10 µM (inactive)
GI50 (BT-549): > 10 µM (inactive)
GI50 (CAKI-1): > 10 µM (inactive)
GI50 (CCRF-CEM): > 10 µM (inactive)
GI50 (COLO 205): > 10 µM (inactive)
GI50 (DU-145): > 10 µM (inactive)
GI50 (EKVX): > 10 µM (inactive)
GI50 (HCC 2998): > 10 µM (inactive)
GI50 (HCT-116): > 10 µM (inactive)
GI50 (HCT-15): > 10 µM
GI50 (HL-60): > 10 µM (inactive)
GI50 (HOP-62): > 10 µM (inactive)
GI50 (HOP-92): > 10 µM (inactive)
GI50 (HT-29): > 10 µM (inactive)
GI50 (Hs-578T): > 10 µM (inactive)
GI50 (IGROV-1): > 10 µM (inactive)
GI50 (K562): > 10 µM (inactive)
GI50 (KM12): > 10 µM (inactive)
GI50 (LOX IMVI): > 10 µM (inactive)
GI50 (M14): > 10 µM (inactive)
GI50 (MCF7): > 10 µM (inactive)
GI50 (MDA-MB-231): > 10 µM (inactive)
GI50 (MDA-MB-435): > 10 µM (inactive)
GI50 (MDA-N): > 10 µM (inactive)
GI50 (MOLT-4): > 10 µM (inactive)
GI50 (Malme-3M): > 10 µM (inactive)
GI50 (NCI-H226): > 10 µM (inactive)
GI50 (NCI-H23): > 10 µM (inactive)
GI50 (NCI-H460): > 10 µM (inactive)
GI50 (NCI-H522): > 10 µM (inactive)
GI50 (NCI/ADR-RES): > 10 µM (inactive)
GI50 (OVCAR-3): > 10 µM (inactive)
GI50 (OVCAR-4): > 10 µM (inactive)
GI50 (OVCAR-5): > 10 µM (inactive)
GI50 (OVCAR-8): > 10 µM (inactive)
GI50 (PC-3): > 10 µM (inactive)
GI50 (RPMI-8226): > 10 µM (inactive)
GI50 (RXF 393): > 10 µM (inactive)
GI50 (SF-268): > 10 µM (inactive)
GI50 (SF-295): > 10 µM (inactive)
GI50 (SF-539): > 10 µM (inactive)
GI50 (SK-MEL-28): > 10 µM (inactive)
GI50 (SK-MEL-2): > 10 µM (inactive)
GI50 (SK-MEL-5): > 10 µM (inactive)
GI50 (SK-OV-3): > 10 µM (inactive)
GI50 (SN12C): > 10 µM (inactive)
GI50 (SNB-19): > 10 µM (inactive)
GI50 (SNB-75): > 10 µM (inactive)
GI50 (SW-620): > 10 µM (inactive)
GI50 (T47D): > 10 µM (inactive)
GI50 (TK-10): > 10 µM (inactive)
GI50 (U-251): > 10 µM (inactive)
GI50 (UACC-257): > 10 µM (inactive)
GI50 (UACC-62): > 10 µM (inactive)
